Assay results published in patent US11058661B2, “Compositions and methods for lowering triglycerides in a subject on concomitant statin therapy and having hsCRP levels of at least about 2 mg/L” (priority 2018, dated 2021).

Assay: AAMI pilot study: essential fatty acids in plasma and RBC
Assay type: in vivo, human
Protocol: Blood samples (10 mL) were collected at Visit 1 (screening) and at Visits 4, 5 and 6. Analysis was performed by MSR Lipid Analysis, Scottish Crop Research Institute, Dundee, UK. The screening sample acted as baseline for the EFA measurements. Lipid was extracted from plasma, serum and RBC suspensions and converted into fatty acid methyl esters which were analyzed by gas chromatography to give fatty acid profiles as micrograms fatty acid per gram of sample (μgFA/g) and normalized area percent. RBC and plasma EFA data were collected at baseline, Day 14, 28 and 42 and summarized by visit for each treatment group. Change from baseline and percent change from baseline were also summarized. ANCOVA comparison of ethyl-EPA dose groups and ethyl-EPA versus placebo was performed.

CC/C=C\C/C=C\C/C=C\C/C=C\C/C=C\CCCC(=O)OCC [Icosapent Ethyl, ethyl eicosapentaenoate]
DHA LS Mean, 1 g versus 4 g (RBC): 1.0 µg/g
DHA LS Mean, 2 g versus 4 g (RBC): 1.0 µg/g
DPAn-3 LS Mean, 1 g versus 4 g (RBC): -6.2 µg/g
DPAn-3 LS Mean, 2 g versus 4 g (RBC): -2.5 µg/g
AA Mean (SD) change from Baseline (RBC, Day 14, 1 g): −8.1 (21.95) μg/g
DGLA Mean (SD) change from Baseline (RBC, Day 14, 1 g): −2.7 (3.82) μg/g
DHA Mean (SD) change from Baseline (RBC, Day 14, 1 g): −4.6 (9.76) μg/g
DPAn-3 Mean (SD) change from Baseline (RBC, Day 14, 1 g): 0.9 (5.03) μg/g
EPA/AA Mean (SD) change from Baseline (RBC, Day 14, 1 g): 0.1 (0.04) μg/g
AA Mean (SD) change from Baseline (RBC, Day 14, 2 g): −3.1 (25.84) μg/g
DGLA Mean (SD) change from Baseline (RBC, Day 14, 2 g): −2.6 (3.54) μg/g
DHA Mean (SD) change from Baseline (RBC, Day 14, 2 g): −2.0 (9.46) μg/g
DPAn-3 Mean (SD) change from Baseline (RBC, Day 14, 2 g): 5.6 (6.28) μg/g
EPA/AA Mean (SD) change from Baseline (RBC, Day 14, 2 g): 0.2 (0.04) μg/g
DGLA Mean (SD) change from Baseline (RBC, Day 14, 4 g): −5.3 (4.10) μg/g
DHA Mean (SD) change from Baseline (RBC, Day 14, 4 g): −6.9 (9.13) μg/g
DPAn-3 Mean (SD) change from Baseline (RBC, Day 14, 4 g): 5.4 (5.38) μg/g
EPA/AA Mean (SD) change from Baseline (RBC, Day 14, 4 g): 0.3 (0.07) μg/g
AA Mean (SD) change from Baseline (RBC, Day 28, 1 g): −17.0 (20.69) μg/g
DGLA Mean (SD) change from Baseline (RBC, Day 28, 1 g): −3.8 (3.31) μg/g
DHA Mean (SD) change from Baseline (RBC, Day 28, 1 g): −6.4 (11.57) μg/g
DPAn-3 Mean (SD) change from Baseline (RBC, Day 28, 1 g): 3.3 (5.42) μg/g
EPA/AA Mean (SD) change from Baseline (RBC, Day 28, 1 g): 0.1 (0.05) μg/g
DGLA Mean (SD) change from Baseline (RBC, Day 28, 2 g): −4.5 (3.58) μg/g
DHA Mean (SD) change from Baseline (RBC, Day 28, 2 g): −6.2 (9.34) μg/g
DPAn-3 Mean (SD) change from Baseline (RBC, Day 28, 2 g): 9.4 (6.74) μg/g
EPA/AA Mean (SD) change from Baseline (RBC, Day 28, 2 g): 0.02 (0.06) μg/g
DGLA Mean (SD) change from Baseline (RBC, Day 28, 4 g): −7.1 (4.63) μg/g
DHA Mean (SD) change from Baseline (RBC, Day 28, 4 g): −8.7 (11.63) μg/g
EPA/AA Mean (SD) change from Baseline (RBC, Day 28, 4 g): 0.4 (0.11) μg/g
DGLA Mean (SD) change from Baseline (RBC, Day 42, 1 g): −3.5 (4.51) μg/g
DHA Mean (SD) change from Baseline (RBC, Day 42, 1 g): −7.0 (12.20) μg/g
DPAn-3 Mean (SD) change from Baseline (RBC, Day 42, 1 g): 6.5 (6.19) μg/g
EPA/AA Mean (SD) change from Baseline (RBC, Day 42, 1 g): 0.1 (0.06) μg/g
DGLA Mean (SD) change from Baseline (RBC, Day 42, 2 g): −5.3 (3.65) μg/g
DHA Mean (SD) change from Baseline (RBC, Day 42, 2 g): −6.3 (9.42) μg/g
EPA/AA Mean (SD) change from Baseline (RBC, Day 42, 2 g): 0.3 (0.06) μg/g
DGLA Mean (SD) change from Baseline (RBC, Day 42, 4 g): −8.0 (4.98) μg/g
EPA/AA Mean (SD) change from Baseline (RBC, Day 42, 4 g): 0.4 (0.14) μg/g
DPAn-3 LS Mean, 2 g versus 4 g (plasma): -9.5 µg/g
EPA values, change from baseline (plasma and RBC, to Day 42, 1, 2 and 4 g groups): increased substantially from baseline
AA Mean (SD) change from Baseline (plasma, Day 14, 1 g): −9.7 (22.20) μg/g
DHA Mean (SD) change from Baseline (plasma, Day 14, 1 g): −6.4 (13.30) μg/g
DPAn-3 Mean (SD) change from Baseline (plasma, Day 14, 1 g): 7.5 (5.11) μg/g
EPA/AA Mean (SD) change from Baseline (plasma, Day 14, 1 g): 0.3 (0.4) μg/g
DHA Mean (SD) change from Baseline (plasma, Day 14, 2 g): −5.4 (14.29) μg/g
EPA/AA Mean (SD) change from Baseline (plasma, Day 14, 2 g): 0.6 (0.23) μg/g
EPA/AA Mean (SD) change from Baseline (plasma, Day 14, 4 g): 1.1 (0.28) μg/g
DHA Mean (SD) change from Baseline (plasma, Day 28, 1 g): −6.6 (15.53) μg/g
DPAn-3 Mean (SD) change from Baseline (plasma, Day 28, 1 g): 3.9 (5.62) μg/g
EPA/AA Mean (SD) change from Baseline (plasma, Day 28, 1 g): 0.3 (0.20) μg/g
DHA Mean (SD) change from Baseline (plasma, Day 28, 2 g): −8.1 (15.82) μg/g
EPA/AA Mean (SD) change from Baseline (plasma, Day 28, 2 g): 0.8 (0.35) μg/g
EPA/AA Mean (SD) change from Baseline (plasma, Day 28, 4 g): 1.3 (0.42) μg/g
AA Mean (SD) change from Baseline (plasma, Day 42, 1 g): −8.7 (31.35) μg/g
DGLA Mean (SD) change from Baseline (plasma, Day 42, 1 g): −9.4 (9.41) μg/g
DHA Mean (SD) change from Baseline (plasma, Day 42, 1 g): −5.4 (18.17) μg/g
EPA/AA Mean (SD) change from Baseline (plasma, Day 42, 1 g): 0.3 (0.24) μg/g
DHA Mean (SD) change from Baseline (plasma, Day 42, 2 g): −6.0 (16.69) μg/g
EPA/AA Mean (SD) change from Baseline (plasma, Day 42, 2 g): 0.7 (0.29) μg/g
DPAn-3 Mean (SD) change from Baseline (plasma, Day 42, 4 g): 32.0 (16.01) μg/g
EPA/AA Mean (SD) change from Baseline (plasma, Day 42, 4 g): 1.3 (0.45) μg/g
